Assay results published in EPA's ToxValDB 9.5 (doi:10.2903/j.efsa.2011.1924).

What was measured:
[1] = subchronic
[2] = subchronic, duration: 90 days, oral, diet

CCCc1ccn(-c2ccccc2)n1 [1H-Pyrazole, 1-phenyl-3(or 5)-propyl-]
NOAEL [1]: 25 mg/kg-day

CC(=O)c1nccs1 [2-Acetylthiazole]
NOAEL (Rattus norvegicus; [2]): 50 mg/kg-day

CCC(=O)c1nccs1 [2-Propionylthiazole]
NOAEL (Rattus norvegicus; [2]): 50 mg/kg-day

c1csc(SSc2cccs2)c1 [2-Thienyl disulfide]
NOAEL (Rattus norvegicus; [2]): 0.29 mg/kg-day

Cc1ccc2c(c1)OC(=O)C2C (stereo unspecified) [3,6-Dimethyl-1-benzofuran-2(3H)-one]
NOAEL (Rattus norvegicus; subchronic, duration: 90 days, oral): 5.42 mg/kg-day

Cc1ncc2c(n1)CSC2 [5,7-Dihydro-2-methylthieno[3,4-d]pyrimidine]
NOAEL (Rattus norvegicus; subchronic, duration: 90 days): 6.6 mg/kg-day

CC(=O)c1ccnc(C)n1 [Ethanone, 1-(2-methyl-4-pyrimidinyl)-]
NOAEL (Rattus norvegicus; subchronic, duration: 90 days, Sprague-Dawley): 1 mg/kg-day

C[S+](C)CC[C@H](N)C(=O)O.[Cl-] [L-Methylmethionine sulfonium chloride]
NOAEL (Rattus norvegicus; chronic, duration: 14 weeks, oral, diet, M/F, Wistar, no effects): 250 mg/kg-day

COCCO [Methoxyethanol]
NOAEL (Rattus norvegicus; chronic): 6 mg/kg-day

COc1cnc(C)s1 [Thiazole, 5-methoxy-2-methyl-]
NOAEL ([1]; duration: 90 days): 8.6 mg/kg-day

COCCOC(C)OCc1ccccc1 (stereo unspecified) [{[1-(2-Methoxyethoxy)ethoxy]methyl}benzene]
NOAEL (Rattus norvegicus; chronic): 6 mg/kg-day
